Measured values published in patent publication US20230330034A1, “COVALENTLY CROSS-LINKED GLYCOSYLATED MUCIN NANOPARTICLES AS SYSTEMS FOR THE DELIVERY AND RELEASE OF ACTIVE INGREDIENTS AND BIOMOLECULES” (priority 2020, published 2023).

Experiments:
[1] = tested on: H358 lung cancer cell line; experiment: Antiproliferative activity, % of cell viability; format: cell-based; conditions: Homo sapiens, NCI-H358, read-out: 1050
[2] = PAMPA, 5 h, 200 µM

| IC50 [1] [nM] | Ca (t) [2] [µM] | Cd(t) [2] [µM] | Ceq [2] [µM] | Compound |
| --- | --- | --- | --- | --- |
| 0.3 | – | – | – | COc1cccc2c1C(=O)c1c(O)c3c(c(O)c1C2=O)C[C@@](O)(C(=O)CO)C[C@@H]3O[C@H]1C[C@H](N)[C@H](O)[C@H](C)O1 [doxorubicin] |
| 7 | – | – | – | CC(=O)Nc1cccc(-n2c(=O)n(C3CC3)c(=O)c3c(Nc4ccc(I)cc4F)n(C)c(=O)c(C)c32)c1 [trametinib] |
| – | 2.01 | 6.6 | 3.85 | CC(C)NCC(O)COc1cccc2ccccc12 (centres unmarked) [propranolol] |
